According to ChEMBL document CHEMBL5370533 (Eur J Med Chem, 2023):

Legend:
SW-620 = test: Antiproliferative activity against human SW-620 cells assessed as inhibition of cell growth; format: functional
[1] = Cmax in Beagle dog at […], po; format: ADME, organism-based, Canis lupus familiaris; design: dose 1.5 mg/kg, route po; settings: in vivo
[2] = biological target: Receptor-type tyrosine-protein kinase FLT3 (Homo sapiens, UniProt P36888, D835Y); test: Binding affinity to FLT3 D835Y mutant (unknown origin)
NCI-H460 = test: Antiproliferative activity against human NCI-H460 cells assessed as inhibition of cell growth; format: functional
[3] = biological target: Cyclin-dependent kinase 2 (Homo sapiens, UniProt P24941); test: Inhibition of human CDK2 pretreated for 20 mins followed by [gamma-33P]-ATP addition and measured after 120 mins in presence of 10 uM ATP by radiometric Hot-SpotSM Kinase assay
SR [4] = test: Antiproliferative activity against human SR cells not addicted to FLT3 ITD mutant assessed as inhibition of cell growth; format: functional
KM12 = test: Antiproliferative activity against human KM12 cells assessed as inhibition of cell growth; format: functional
BaF3 [5] = test: cells; format: functional, cell-based; settings: Mus musculus, BaF3, 72 h
Description: Antiproliferative activity against mouse BaF3 cells harboring FLT3 ITD/D835V mutant assessed as inhibition of cell growth incubated for 72 hrs

[6] = biological target: Receptor-type tyrosine-protein kinase FLT3 (Homo sapiens, UniProt P36888, N841I); test: Binding affinity to FLT3 N841I mutant (unknown origin)
BaF3 [7] = test: Antiproliferative activity against mouse BaF3 cells harboring FLT3 D835V mutant assessed as inhibition of cell growth incubated for 72 hrs; format: functional, cell-based; settings: BaF3, 72 h
[8] = biological target: T1, Receptor-type tyrosine-protein kinase FLT3 (Homo sapiens, UniProt P36888); test: Binding affinity to autoinhibited FLT3 (unknown origin)
T1 sequence (P36888 whole entry): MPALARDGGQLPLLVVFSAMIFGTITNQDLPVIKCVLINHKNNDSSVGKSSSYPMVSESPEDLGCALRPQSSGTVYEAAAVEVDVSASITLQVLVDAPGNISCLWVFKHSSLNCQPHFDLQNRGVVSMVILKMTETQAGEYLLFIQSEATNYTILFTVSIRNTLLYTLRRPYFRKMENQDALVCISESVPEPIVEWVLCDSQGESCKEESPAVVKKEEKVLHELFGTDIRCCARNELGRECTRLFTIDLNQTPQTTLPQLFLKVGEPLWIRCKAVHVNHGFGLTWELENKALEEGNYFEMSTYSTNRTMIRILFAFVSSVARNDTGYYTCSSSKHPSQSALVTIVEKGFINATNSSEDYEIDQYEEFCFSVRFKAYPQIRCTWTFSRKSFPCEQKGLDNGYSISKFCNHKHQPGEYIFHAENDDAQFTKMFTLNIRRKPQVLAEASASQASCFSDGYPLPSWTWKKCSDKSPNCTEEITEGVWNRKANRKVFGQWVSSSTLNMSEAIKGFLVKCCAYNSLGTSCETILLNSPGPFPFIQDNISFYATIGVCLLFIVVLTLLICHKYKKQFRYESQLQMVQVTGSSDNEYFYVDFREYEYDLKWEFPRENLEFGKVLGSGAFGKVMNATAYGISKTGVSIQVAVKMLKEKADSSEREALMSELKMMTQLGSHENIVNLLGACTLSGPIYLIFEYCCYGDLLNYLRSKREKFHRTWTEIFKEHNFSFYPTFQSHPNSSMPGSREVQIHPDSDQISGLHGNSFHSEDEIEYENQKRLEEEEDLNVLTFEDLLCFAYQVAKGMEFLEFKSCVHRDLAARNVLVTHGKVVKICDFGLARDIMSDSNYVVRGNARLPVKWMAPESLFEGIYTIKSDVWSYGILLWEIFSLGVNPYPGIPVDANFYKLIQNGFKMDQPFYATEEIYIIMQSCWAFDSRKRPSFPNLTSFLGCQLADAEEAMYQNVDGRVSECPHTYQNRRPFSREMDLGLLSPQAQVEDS

[9] = Oral bioavailability in rat at 10 mg/kg; format: ADME, organism-based; settings: in vivo
[10] = AUC (0 to t) in Beagle dog at […], po; format: ADME, organism-based, Canis lupus familiaris; design: dose 1.5 mg/kg, route po; settings: in vivo
THP-1 = test: Antiproliferative activity against human THP-1 cells expressing wild type FLT3 assessed as inhibition of cell growth; format: functional, cell-based
K562 = test: Antiproliferative activity against human K562 cells deficit of oncogenic FLT3 assessed as inhibition of cell growth; format: functional, cell-based
[11] = Cytotoxicity against mouse BaF3 cells assessed as inhibition of cell growth incubated for 72 hrs; format: toxicity, cell-based
[12] = biological target: T1, Receptor-type tyrosine-protein kinase FLT3; test: Binding affinity to FLT3 (unknown origin)
HL-60 = test: Antiproliferative activity against human HL-60 cells expressing low level wild type FLT3 assessed as inhibition of cell growth; format: functional, cell-based
[13] = Cmax in rat at 10 mg/kg, po; format: ADME, organism-based; design: dose 10 mg/kg, route po; settings: in vivo
[14] = biological target: Receptor-type tyrosine-protein kinase FLT3 (Homo sapiens, UniProt P36888, ITD); test: Binding affinity to FLT3 ITD mutant (unknown origin)
SR [15] = test: Antiproliferative activity against human SR cells assessed as inhibition of cell growth; format: functional
MV4-11 = test: Antiproliferative activity against human MV4-11 cells harboring FLT3 ITD mutant assessed as inhibition of cell growth incubated for 72 hrs by CellTiter-Glo luminescent assay; format: functional, cell-based; settings: MV4-11, 72 h
BaF3 [16] = test: cells; format: functional, cell-based; settings: Mus musculus, BaF3, 72 h; remark: listed apart in the source
Description: Antiproliferative activity against mouse BaF3 cells harboring FLT3 ITD/F691L mutant assessed as inhibition of cell growth incubated for 72 hrs

[17] = Cytotoxicity against human PBMC cells assessed as inhibition of cell growth; format: toxicity, cell-based
[18] = biological target: Receptor-type tyrosine-protein kinase FLT3 (Homo sapiens, UniProt P36888, D835H); test: Binding affinity to FLT3 D835H mutant (unknown origin)
[19] = Tmax in rat at 10 mg/kg, po; format: ADME, organism-based; settings: in vivo
[20] = biological target: Receptor-type tyrosine-protein kinase FLT3 (Homo sapiens, UniProt P36888, D835V); test: Binding affinity to FLT3 D835V mutant (unknown origin)
LOX IMVI = test: Antiproliferative activity against human LOX IMVI cells assessed as inhibition of cell growth; format: functional
[21] = biological target: CDK6/cyclin D1 (Homo sapiens) (UniProt P24385+Q00534); test: Inhibition of CDK6/Cyclin D1 (unknown origin); format: protein-complex assay; settings: concentration not given here
[22] = Half life in human liver microsomes by LC-MS/MS analysis; format: ADME, Microsome
BaF3 [23] = test: cells; format: functional, cell-based; settings: Mus musculus, BaF3, 72 h; remark: listed apart in the source
Description: Antiproliferative activity against mouse BaF3 cells harboring FLT3 ITD/N676D mutant assessed as inhibition of cell growth incubated for 72 hrs

[24] = biological target: Cyclin-dependent kinase 6 (Homo sapiens, UniProt Q00534); test: Inhibition of human CDK6 pretreated for 20 mins followed by [gamma-33P]-ATP addition and measured after 120 mins in presence of 10 uM ATP by radiometric Hot-SpotSM Kinase assay
[25] = Half life in rat at 10 mg/kg, po; format: ADME, organism-based; settings: in vivo
[26] = Toxicity against nu/nu mouse xenografted with human MV4-11 cells assessed as decrease in body weight at 25 mg/kg, po qd for 2 weeks; format: organism-based; settings: in vivo, 336 h
[27] = biological target: CDK7/Cyclin H/MNAT1 (Homo sapiens) (UniProt P51946+P50613+P51948); test: Inhibition of CDK7/Cyclin H/MAT1 (unknown origin); format: protein-complex assay; settings: concentration not given here

Cyclin-dependent kinase 6, sequence (Q00534 whole entry): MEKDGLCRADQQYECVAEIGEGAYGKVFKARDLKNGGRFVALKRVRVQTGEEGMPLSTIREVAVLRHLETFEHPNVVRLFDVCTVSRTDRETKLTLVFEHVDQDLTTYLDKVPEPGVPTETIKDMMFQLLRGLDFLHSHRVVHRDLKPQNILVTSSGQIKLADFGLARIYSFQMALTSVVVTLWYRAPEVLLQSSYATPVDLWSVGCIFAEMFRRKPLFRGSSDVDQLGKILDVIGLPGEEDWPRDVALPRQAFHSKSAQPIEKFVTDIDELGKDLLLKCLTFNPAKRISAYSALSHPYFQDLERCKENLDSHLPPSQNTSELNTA

O=C(Nc1ccc(N2CCNCC2)cc1)c1n[nH]cc1Nc1cc(Oc2ccccc2)ncn1
GI50 (SW-620): < 1000 nM | Cmax [1]: 52.1 ng/mL | Kd [2]: 7.16 nM | GI50 (NCI-H460): < 1000 nM | IC50 [3]: 98.3 nM | GI50 (SR [4]): 300 nM | GI50 (KM12): < 1000 nM | IC50 (BaF3 [5]): 9 nM | Kd [6]: 77.2 nM | IC50 (BaF3 [7]): 43 nM | Kd [8]: 121 nM | bioavailability [9]: 33.3% | AUC(0-t) [10]: 762 ng·h/mL | IC50 (THP-1): 904 nM | IC50 (K562): 572 nM | IC50 at 72 h [11]: 2920 nM | Kd [12]: 22.1 nM | IC50 (HL-60): 972 nM | Cmax [13]: 144 ng/mL | Kd [14]: 18.2 nM | GI50 (SR [15]): < 1000 nM | IC50 (MV4-11): 15 nM | IC50 (BaF3 [16]): 95 nM | IC50 [17]: 831 nM | Kd [18]: 48.5 nM | Tmax [19]: 4 h | Kd [20]: 1.54 nM | GI50 (LOX IMVI): < 1000 nM | inhibition [21]: 68.8% | half-life [22]: 3.1 h | IC50 (BaF3 [23]): 54 nM | IC50 [24]: 122 nM | half-life [25]: 3.5 h | Activity [26]: Non-Toxic | inhibition [27]: 80.9%
